The text below walks through data of PubChem BioAssay (NCI).

Where “and” joins values, the source holds several entries; their conditions need not be identical. Equal entries are not always repeated.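 The compound was tested at five concentrations on cells cultured in 96-well plates, with a 48-hour exposure period. At the GI50, growth is halved. The concentration for full growth arrest is given as TGI.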

Test systems include SF-539 CNS; CCRF-CEM leukemia; A498 renal; MDA-MB-231 breast; SK-OV-3 ovarian; UACC-257 melanoma; EKVX NSCLC; TK-10 renal; HS 578T breast; OVCAR-5 ovarian.
Holding throughout (test): NCI tumour cell line growth inhibition, 48 h

Consider `O=C(Nc1ccc(Cl)c([N+](=O)[O-])c1)Nc1nc2ccccc2s1`, for which the GI50 with SF-539 CNS is 3.77 µM; in the test with CCRF-CEM leukemia, 3.88 µM; in the test with A498 renal, 2.14 µM; with MDA-MB-231 breast it was 3.5 µM; in the test on SK-OV-3 ovarian, 2.6 µM; in the test with UACC-257 melanoma, 2.4 µM. Moreover, the GI50 is 2.59 µM in the test with EKVX NSCLC, 4.26 µM in the test on TK-10 renal, 2.85 µM in the test with HS 578T breast and 4.49 µM in the test with OVCAR-5 ovarian. Further, the TGI was determined as 16.9 µM in the test with SF-539 CNS; 20.8 µM in the test on CCRF-CEM leukemia; 8.01 µM with A498 renal; 12.1 µM in the test on MDA-MB-231 breast; 8.46 µM in the test on SK-OV-3 ovarian; 6.99 µM in the test with UACC-257 melanoma. In addition, the TGI in the test with EKVX NSCLC turned out to be 10.9 µM; in the test on TK-10 renal, 12.8 µM; in the test with HS 578T breast, 12.3 µM; in the test on OVCAR-5 ovarian, 19.3 µM.
For `Cc1[nH]c(=O)[nH]c(=O)c1N(CCF)CCCl`, the GI50 was 499 µM and 153 µM in the test on SF-539 CNS; 96 µM and 48.4 µM in the test with CCRF-CEM leukemia; 247 µM and 311 µM with A498 renal; 332 µM and 472 µM in the test on SK-OV-3 ovarian; 228 µM in the test on UACC-257 melanoma; 165 µM and 406 µM and 557 µM in the test on EKVX NSCLC. Moreover, the GI50 with OVCAR-5 ovarian is 329 µM and 400 µM. The TGI in the test on SF-539 CNS is 478 µM and 1680 µM and 768 µM; with CCRF-CEM leukemia, 796 µM and 626 µM and 791 µM; with A498 renal, 507 µM and 466 µM and 967 µM; in the test with MDA-MB-231 breast it was 888 µM; in the test on SK-OV-3 ovarian, 741 µM and 1330 µM and 1240 µM; with UACC-257 melanoma it was 465 µM and 1070 µM and 855 µM. Besides, the TGI in the test with EKVX NSCLC is 443 µM and 762 µM and 1200 µM; in the test on TK-10 renal, 1070 µM; in the test on HS 578T breast, 1660 µM; in the test on OVCAR-5 ovarian, 676 µM and 976 µM and 1200 µM.
For the compound `COc1ccc(CN2C(=O)/C(=C\c3cc(OC)c(OC)c(OC)c3)c3cc(OC)ccc32)cc1`, the GI50 is 1.86 µM in the test with SF-539 CNS; 3.4 µM in the test on CCRF-CEM leukemia; 1.5 µM with A498 renal; 2.89 µM with MDA-MB-231 breast; 3.12 µM in the test on SK-OV-3 ovarian; 1.94 µM in the test on UACC-257 melanoma. For the same compound, the GI50 in the test on EKVX NSCLC is 3.83 µM; with TK-10 renal it was 3.92 µM; in the test on HS 578T breast, 2.4 µM; in the test on OVCAR-5 ovarian it was 2.47 µM. The TGI was 3.76 µM in the test on SF-539 CNS; more than 100 µM in the test with CCRF-CEM leukemia; 4.39 µM with A498 renal; more than 100 µM with MDA-MB-231 breast; 13.1 µM in the test on SK-OV-3 ovarian; 4.94 µM with UACC-257 melanoma. Moreover, the TGI in the test on EKVX NSCLC is more than 65.6 µM; with TK-10 renal, 18.6 µM; in the test with HS 578T breast it was 8.72 µM; with OVCAR-5 ovarian, 5.51 µM.
On to `CCN1C(=O)C/C(=C\C(C)=O)Nc2ccccc21`, for which the TGI in the test on SF-539 CNS, in the test with CCRF-CEM leukemia, in the test with A498 renal, with MDA-MB-231 breast, in the test on SK-OV-3 ovarian and in the test on UACC-257 melanoma was more than 100 µM in each case. Moreover, the TGI in the test with EKVX NSCLC, with TK-10 renal, in the test with HS 578T breast and with OVCAR-5 ovarian was more than 100 µM in each case. Moreover, the GI50 in the test with A498 renal, with MDA-MB-231 breast, in the test with UACC-257 melanoma and with HS 578T breast was more than 100 µM throughout.
Regarding `Oc1c(CN2CCC(N3CCOCC3)CC2)cc(Cc2cc(CN3CCC(N4CCOCC4)CC3)c(O)c3ncccc23)c2cccnc12`, the GI50 with SF-539 CNS is 1.11 µM; in the test with CCRF-CEM leukemia, 0.337 µM; in the test with A498 renal it was 3.74 µM; with MDA-MB-231 breast, 0.27 µM; with SK-OV-3 ovarian it was 0.758 µM; with UACC-257 melanoma, 3.62 µM. Besides, the GI50 is 0.737 µM with EKVX NSCLC, 1.12 µM in the test with TK-10 renal, 10 µM in the test with HS 578T breast and 2.14 µM with OVCAR-5 ovarian. For the same compound, the TGI in the test with SF-539 CNS is 2.9 µM; with CCRF-CEM leukemia, more than 100 µM; in the test with A498 renal it was 13.9 µM; in the test on MDA-MB-231 breast, 5.03 µM; with SK-OV-3 ovarian it was 8.96 µM; with UACC-257 melanoma, 16.3 µM. In addition, the TGI is more than 100 µM with EKVX NSCLC, 16.7 µM in the test on TK-10 renal, 48 µM with HS 578T breast and more than 100 µM in the test on OVCAR-5 ovarian.
Regarding `CCC1=C(C)/C(=C/c2[nH]c(C)c(C(=O)CCCCC(=O)OC)c2C)N=C1c1ccc[nH]1`, the GI50 in the test on SF-539 CNS is 13.2 µM; in the test on CCRF-CEM leukemia, 0.204 µM; in the test with A498 renal it was 23.9 µM; with MDA-MB-231 breast it was 4.6 µM; in the test with SK-OV-3 ovarian, 34.6 µM; in the test on UACC-257 melanoma, 16.1 µM. Also, the GI50 is 12.2 µM in the test on EKVX NSCLC, 24.5 µM in the test with TK-10 renal, 14.7 µM in the test on HS 578T breast and 21.1 µM in the test on OVCAR-5 ovarian. The TGI in the test on SF-539 CNS was 27.1 µM; with CCRF-CEM leukemia, 6.63 µM; with A498 renal it was 59.5 µM; with MDA-MB-231 breast it was 46.4 µM; in the test on SK-OV-3 ovarian it was more than 80.6 µM; in the test with UACC-257 melanoma, 44.2 µM. Also, the TGI is 32 µM in the test with EKVX NSCLC, 71.1 µM in the test on TK-10 renal, 50.4 µM in the test on HS 578T breast and more than 67.2 µM with OVCAR-5 ovarian.
Turning to `Oc1ccc(C(c2ccccc2)(c2ccccc2)c2ccccc2)cc1`, the GI50 with SF-539 CNS was 17.6 µM; in the test on CCRF-CEM leukemia it was 21.1 µM; with A498 renal, 20.5 µM; in the test with MDA-MB-231 breast, 16.7 µM; in the test with SK-OV-3 ovarian, 16.3 µM; with UACC-257 melanoma it was 15.5 µM. The GI50 with EKVX NSCLC was 15.4 µM; with TK-10 renal, 36.7 µM; with HS 578T breast, 17.6 µM; in the test with OVCAR-5 ovarian, 14.4 µM. Also, the TGI worked out at 31.9 µM with SF-539 CNS; 39.5 µM in the test with CCRF-CEM leukemia; 35.1 µM in the test with A498 renal; 34.2 µM in the test with MDA-MB-231 breast; 30 µM with SK-OV-3 ovarian; 31.3 µM in the test on UACC-257 melanoma. Further, the TGI was 29.3 µM with EKVX NSCLC, 87.4 µM with TK-10 renal, 65.1 µM in the test with HS 578T breast and 28.1 µM in the test on OVCAR-5 ovarian.
With `CCNC(=O)C[C@@H]1N=C(c2ccc(Cl)cc2)c2cc(OC)ccc2-n2c(C)nnc21`, the GI50 in the test on SF-539 CNS was 2.33 µM; with CCRF-CEM leukemia it was 7.44 µM; in the test on A498 renal it was 1.73 µM; in the test with MDA-MB-231 breast, 2.76 µM; in the test with SK-OV-3 ovarian it was 2.37 µM; in the test with UACC-257 melanoma, 2 µM. Also, the GI50 was more than 100 µM in the test with EKVX NSCLC, 0.645 µM in the test with TK-10 renal, 0.796 µM in the test with HS 578T breast and more than 100 µM in the test with OVCAR-5 ovarian. Besides, the TGI in the test on SF-539 CNS was more than 100 µM; in the test with CCRF-CEM leukemia it was more than 100 µM; in the test on A498 renal it was more than 69.3 µM; in the test on MDA-MB-231 breast, more than 100 µM; with SK-OV-3 ovarian it was more than 100 µM; in the test on UACC-257 melanoma, more than 100 µM. In addition, the TGI in the test with EKVX NSCLC was more than 100 µM; in the test with TK-10 renal, more than 53.8 µM; with HS 578T breast, more than 41.5 µM; with OVCAR-5 ovarian it was more than 100 µM.
In the case of `COc1ccc(C(=O)/C=C/c2ccc(O)c(O)c2F)c(OC)c1`, the GI50 in the test with SF-539 CNS is 4.5 µM; in the test on A498 renal, 10.5 µM; with SK-OV-3 ovarian it was 17.6 µM; with UACC-257 melanoma, 10.5 µM; in the test on EKVX NSCLC it was 10.9 µM; in the test on TK-10 renal, 7.64 µM. The GI50 in the test with HS 578T breast was 7.34 µM; in the test with OVCAR-5 ovarian it was 15.3 µM. Besides, the TGI is 15.7 µM and 28.5 µM with SF-539 CNS; 6.5 µM in the test on CCRF-CEM leukemia; 21.3 µM and 30.6 µM in the test with A498 renal; 38.1 µM and 42.1 µM with MDA-MB-231 breast; 47 µM and 90.3 µM in the test with SK-OV-3 ovarian; 18.4 µM and 22.3 µM in the test with UACC-257 melanoma. Further, the TGI in the test on EKVX NSCLC is 30.3 µM and 28.9 µM; with TK-10 renal, 28.5 µM and 23.4 µM; with HS 578T breast, 75 µM and > 100 µM; in the test with OVCAR-5 ovarian, 23.3 µM and 34.8 µM.
With `COc1cc2oc(=O)cc(C)c2cc1[N+](=O)[O-]`, the TGI in the test on SF-539 CNS is 57.7 µM; with CCRF-CEM leukemia it was more than 100 µM; in the test with A498 renal, more than 84 µM; in the test on MDA-MB-231 breast, 71.6 µM; with SK-OV-3 ovarian it was more than 100 µM; with UACC-257 melanoma it was 33.5 µM. For the same compound, the TGI is more than 100 µM with EKVX NSCLC, 83.6 µM with TK-10 renal, more than 90.3 µM in the test on HS 578T breast and more than 79 µM in the test on OVCAR-5 ovarian.
On to `S=CN1CCCCC1`, for which the TGI in the test with SF-539 CNS, in the test with CCRF-CEM leukemia, with A498 renal, in the test on MDA-MB-231 breast, with SK-OV-3 ovarian and with UACC-257 melanoma was more than 100 µM throughout. Besides, the TGI in the test with EKVX NSCLC, in the test with TK-10 renal, in the test with HS 578T breast and in the test with OVCAR-5 ovarian was more than 100 µM each time.
Consider `CCn1c(=O)c(-c2ccn[nH]2)cc2c(C)nc(N)nc21`, for which the GI50 in the test with SF-539 CNS is 1.77 µM; with CCRF-CEM leukemia, 1.68 µM; with A498 renal, 0.209 µM; in the test on MDA-MB-231 breast, 1.45 µM; with SK-OV-3 ovarian it was 0.698 µM; with UACC-257 melanoma, 1.38 µM. Also, the GI50 with EKVX NSCLC was 0.691 µM; in the test on TK-10 renal it was 0.871 µM; with HS 578T breast, 0.35 µM; with OVCAR-5 ovarian, 0.539 µM. The TGI in the test with SF-539 CNS is 10.1 µM; with CCRF-CEM leukemia, more than 100 µM; in the test on A498 renal, 0.726 µM; in the test on MDA-MB-231 breast, 12 µM; in the test with SK-OV-3 ovarian it was 3.4 µM; with UACC-257 melanoma, 6.24 µM. The TGI is 11.1 µM in the test with EKVX NSCLC, 4.62 µM in the test with TK-10 renal, 2.38 µM in the test with HS 578T breast and 10.6 µM with OVCAR-5 ovarian.
